Results reported in ChEMBL document CHEMBL1143809, “New bis-N9-(methylphenylmethyl)purine derivatives: synthesis and antitumor activity” (2007).

Key:
Type in all cases: functional
M14 = test: Growth inhibition of human M14 cells after 48 hrs by SRB protein assay; details: M14, 48 h
SK-MEL-2 = test: Growth inhibition of human SK-MEL-2 cells after 48 hrs by SRB protein assay; details: SK-MEL-2, 48 h
SK-MEL-28 = test: Growth inhibition of human SK-MEL-28 cells after 48 hrs by SRB protein assay; details: SK-MEL-28, 48 h
UACC-257 = test: Growth inhibition of human UACC257 cells after 48 hrs by SRB protein assay; details: UACC-257, 48 h
IGROV-1 = test: Growth inhibition of human IGROV1 cells after 48 hrs by SRB protein assay; details: IGROV-1, 48 h
OVCAR-4 = test: Growth inhibition of human OVCAR4 cells after 48 hrs by SRB protein assay; details: OVCAR-4, 48 h
MCF7 = test: Anticancer activity against human MCF7 cells assessed as growth at 100 uM after 48 hrs by SRB protein assay relative to control; details: MCF7, 48 h, read-out: Activity
SF-268 [1] = test: Anticancer activity against human SF268 cells assessed as growth at 100 uM after 48 hrs by SRB protein assay relative to control; details: SF-268, 48 h, read-out: Activity
CCRF-CEM = test: Growth inhibition of human CCRF-CEM cells after 48 hrs by SRB protein assay
K562 = test: Growth inhibition of human K562 cells after 48 hrs by SRB protein assay; details: K562, 48 h
EKVX = test: Growth inhibition of human EKVX cells after 48 hrs by SRB protein assay
[2] = Growth inhibition of human NCL-H226 cells after 48 hrs by SRB protein assay; details: NCL-H226, 48 h
[3] = Growth inhibition of human NCL-H322M cells after 48 hrs by SRB protein assay
NCI-H460 = test: Growth inhibition of human NCL-H460 cells after 48 hrs by SRB protein assay; details: NCI-H460, 48 h
[4] = Growth inhibition of human NCL-H522 cells after 48 hrs by SRB protein assay; details: NCL-H522, 48 h
COLO 205 = test: Growth inhibition of human COLO205 cells after 48 hrs by SRB protein assay; details: COLO 205, 48 h
HCC 2998 = test: Growth inhibition of human HCC2998 cells after 48 hrs by SRB protein assay; details: HCC 2998, 48 h
HT-29 = test: Growth inhibition of human HT29 cells after 48 hrs by SRB protein assay; details: HT-29, 48 h
KM12 = test: Growth inhibition of human KM12 cells after 48 hrs by SRB protein assay; details: KM12, 48 h
SW-620 = test: Growth inhibition of human SW620 cells after 48 hrs by SRB protein assay; details: SW-620, 48 h
SF-268 [5] = test: Growth inhibition of human SF268 cells after 48 hrs by SRB protein assay; details: SF-268, 48 h
SNB-19 = test: Growth inhibition of human SNB19 cells after 48 hrs by SRB protein assay; details: SNB-19, 48 h
SNB-75 = test: Growth inhibition of human SNB75 cells after 48 hrs by SRB protein assay; details: SNB-75, 48 h
U-251 = test: Growth inhibition of human U251 cells after 48 hrs by SRB protein assay; details: U-251, 48 h
[6] = Growth inhibition of human LOX MIVI cells after 48 hrs by SRB protein assay
786-0 = test: Growth inhibition of human 786-0 cells after 48 hrs by SRB protein assay; details: 786-0, 48 h
ACHN = test: Growth inhibition of human ACHN cells after 48 hrs by SRB protein assay
UO-31 = test: Growth inhibition of human UO31 cells after 48 hrs by SRB protein assay; details: UO-31, 48 h
PC-3 = test: Growth inhibition of human PC3 cells after 48 hrs by SRB protein assay; details: PC-3, 48 h
NCI/ADR-RES = test: Growth inhibition of human NCI/ADR-RES cells after 48 hrs by SRB protein assay
HOP-92 = test: Growth inhibition of human HOP92 cells after 48 hrs by SRB protein assay; details: HOP-92, 48 h
HCT-116 = test: Growth inhibition of human HCT116 cells after 48 hrs by SRB protein assay; details: HCT-116, 48 h
MDA-MB-231 = test: Growth inhibition of human MDA-MB-231 cells after 48 hrs by SRB protein assay; details: MDA-MB-231, 48 h
[7] = read-out: LC50 (the source's name)

**Q.** What does the source list for `Clc1nc(Cl)c2ncn(Cc3ccc(Cn4cnc5c(Cl)nc(Cl)nc54)cc3)c2n1`?
**A.** LC50 (M14): 52.5 µM; TGI (M14): 27.5 µM; TGI (SK-MEL-2): 23.4 µM; CC50 (SK-MEL-2; [7]): 49 µM; GI50 (SK-MEL-28): < 0.01 µM; LC50 (SK-MEL-28): 42.6 µM; TGI (SK-MEL-28): 18.2 µM; TGI (UACC-257): 25.1 µM; CC50 (UACC-257; [7]): 50.1 µM; GI50 (IGROV-1): 12.9 µM; LC50 (50% lethal concentration) (IGROV-1): 50.1 µM; TGI (IGROV-1): 25.1 µM; GI50 (OVCAR-4): 14.3 µM; LC50 (OVCAR-4): 52.5 µM; TGI (OVCAR-4): 27.5 µM; growth at 100 µM (MCF7): 0%; growth at 100 µM (SF-268 [1]): 58%; GI50 (CCRF-CEM): 10.2 µM; TGI (CCRF-CEM): 22.9 µM; CC50 (CCRF-CEM; [7]): 51.3 µM; GI50 (K562): 2.88 µM; TGI (K562): 16.6 µM; CC50 (K562; [7]): 40.7 µM; GI50 (EKVX): < 0.01 µM; LC50 (EKVX): 44.7 µM; TGI (EKVX): 19.9 µM; GI50 [2]: 17 µM; LC50 [2]: 93.3 µM; TGI [2]: 39.8 µM; TGI [3]: 33.9 µM; CC50 [3, 7]: 91.2 µM; GI50 (NCI-H460): 14.1 µM; TGI (NCI-H460): 26.9 µM; CC50 (NCI-H460; [7]): 52.5 µM; GI50 [4]: 12.3 µM; LC50 [4]: 52.5 µM; TGI [4]: 25.7 µM; LC50 (COLO 205): 41.7 µM; TGI (COLO 205): 17.4 µM; LC50 (HCC 2998): 50.1 µM; TGI (HCC 2998): 25.1 µM; GI50 (HT-29): < 0.01 µM; LC50 (HT-29): 39.8 µM; TGI (HT-29): 15.8 µM; GI50 (KM12): 14.1 µM; LC50 (concentration killing 50% of cells) (KM12): 52.5 µM; TGI (KM12): 27.5 µM; GI50 (SW-620): < 0.01 µM; TGI (SW-620): 2.63 µM; CC50 (SW-620; [7]): 8.31 µM; GI50 (SF-268 [5]): 15.5 µM; LC50 (SF-268 [5]): > 100 µM; TGI (SF-268 [5]): 38.9 µM; TGI (SNB-19): 21.9 µM; CC50 (SNB-19; [7]): 46.8 µM; GI50 (SNB-75): < 0.01 µM; TGI (SNB-75): 17 µM; CC50 (SNB-75; [7]): 41.7 µM; GI50 (U-251): 13.8 µM; TGI (U-251): 26.9 µM; CC50 (U-251; [7]): 51.3 µM; GI50 [6]: 2.88 µM; LC50 [6]: 41.7 µM; TGI [6]: 17.4 µM; GI50 (786-0): 14.5 µM; TGI (786-0): 27.5 µM; CC50 (786-0; [7]): 52.5 µM; GI50 (ACHN): 12.6 µM; LC50 (ACHN): 50.1 µM; TGI (ACHN): 25.1 µM; GI50 (UO-31): 10 µM; LC50 (UO-31): 46.8 µM; TGI (UO-31): 21.4 µM; GI50 (PC-3): 12.9 µM; TGI (PC-3): 25.7 µM; CC50 (PC-3; [7]): 50.1 µM; GI50 (NCI/ADR-RES): 13.8 µM; LC50 (NCI/ADR-RES): 60.2 µM; TGI (NCI/ADR-RES): 28.8 µM; LC50 (HOP-92): 57.5 µM; TGI (HOP-92): 26.3 µM; GI50 (HCT-116): 9.33 µM; TGI (HCT-116): 21.4 µM; CC50 (HCT-116; [7]): 46.8 µM; LC50 (50% lethal concentration) (MDA-MB-231): 46.8 µM; TGI (MDA-MB-231): 21.9 µM
